Experimental data taken from patent publication US4035486A, “Medicament” (Centre d'Etudes Experimentales et Clinques de Physio …, priority 1974, dated 1977).

Columns and labels:
[1] = test system: sections of the cerebral cortex of a rat stimulated by KCl; test: Action in vitro on consumption of oxygen, accumulation of lactic acid and consumption of glucose in rat cerebral cortex sections stimulated by KCl (Warburg technique, enzymatic determination); type: cell-based; settings: for Accumulation of lactic acid / Consumption of glucose / Consumption of oxygen: rat cerebral cortex sections stimulated by KCl, 1 hour at 37°, ACh 2.7.10^-10 M, insulin 66.10^-4 U/I
From the text: 1. The investigation, on sections of a rat's brain which have been stimulated by KCl, of the variations in the consumption of oxygen, the production of lactic acid and the consumption of glucose, by WARBURG's conventional technique, after which these sections are subjected to the action of guanosine, ACh or insulin or guanosine in association with ACh or insulin. I. Action in vitro of guanosine, alone or in association with acetylcholine or insulin, on the consumption of oxygen, the accumulation of lactic acid and the consumption of glucose in sections of the cerebral cortex of a rat which have been stimulated by KCl. The animals which are used are male Wistar Vag rats with an average weight of 225/250 grammes, and they have been subjected to standard laboratory regime. The sections of tissue, which weigh between 15 and 20 mg, were taken from the cerebral cortex of the rat and allowed to incubate for 1 hour at 37° after being placed in a flask containing the Krebs-Ringer phosphate buffer having a KCl concentration of 10 percent. The substrate comprises 15 μ moles of glucose. The guanosine, […], is added to the flask simultaneously with the glucose and the buffer, whereas the acetylcholine 2.7.10^^-10 M and the insulin (Endopancrine) 66.10^-^4 μ/liter are placed in the lateral paunch and put into contact with the section of tissue at a time 0. The total volume of the mixture is 3 mls. The consumption of oxygen is measured according to Warburg's conventional method after a 1-hour period of incubation at 37°. It is expressed in μ moles of oxygen per hour and per gramme of tissue. The lactic acid and glucose are determined in the deproteinised incubation medium by an enzymatic method. The results are expressed in μ moles/h/g of tissue.

[2] = test system: glycogen of the mouse brain; test: Cerebral glycogen in a mouse after injection of guanosine, insulin or both; type: in vivo; settings: for glycogen of the mouse brain: 30 minutes before killing; for level of cerebral glycogen compared with the controls (in words): mouse, guanosine 100 mg/kg or 200 mg/kg, insulin 0.5 I.U./20 g, or insulin with guanosine 200 mg/kg
Method: 2. The investigation of the content of glycogen in the brain of a mouse under the action of quanosine or insulin or these two agents in association. The animals which are used are male mice with an average weight of 20-25 g. Five groups of animals were studied which had received respectively: 1st group: a isotonic salt solution by intraperitoneal injection. 2nd group: a dose of 100 mg/kg of guanosine by intraperitoneal injection. 3rd group: a dose of 200 mg/kg of guanosine by intraperitoneal injection. 4th group: a dose of 0.5 μI/20 g per mouse of insulin by subcutaneous injection. For these four groups the injection was made 30 minutes before the animals were killed. 5th group: an intraperitoneal injection of guanosine at a dose of 200 mg/kg 30 minutes before a sub-cutaneous injection of insulin at a dose of 0.5 μI/20 g per mouse. The animal is killed 30 minutes after the second injection by being totally immersed in liquid nitrogen. The brains are removed whilst they are still deep-frozen. The isolated glycogen is hydrolyzed by the enzyme amylo-α-1,4 -α-1,6 glucosidase which releases the glucose by hydrolysis of the α-(1 → 6) and α-(→ 4) bonds. The glucose is then converted, in a single stage, to 6-phosphogluconate by the enzymes : hexokinase and glucose-6-phosphate dehydrogenase. The formation of the nicotinamide adenine dinucleotide phosphate is then measured florometrically (NAHORSKI and ROGERS, Analyt. Biochem. 1972, 49, 492-497).

glycemia = test: Action of guanosine upon glycemia in the rabbit after intravenous injection; type: in vivo; settings: insulin 0.5 I.U. per kg alone or with guanosine 100 mg per kg, followed to 240 min
Method: 3. The study of the variations in glycemia in a rabbit after an injection of either insulin or insulin in association with guanosine.
The animals which are used are male rabbits with a weight of 2.200 kg to 2.500 kg.
Four groups of animals were studied which had received by intravenous injection, respectively, in a volume of 10 ml:
1st group: an isotonic solution of sodium chloride.
2nd group: guanosine at the rate of 100 mg per kg of rabbit.
3rd group: insulin at the rate of 0.5 I.U. per kg of rabbit.
4th group: guanosine at the rate of 100 mg per kg of rabbit and insulin at the rate of 0.5 I.U. per kg of rabbit.
A catheter is inserted into the femoral artery, its distal end being joined to the skin in the caudal region, such that the blood may be removed without harming the rabbit.
The drugs were injected via a vein in the ear. The guanosine was dissolved in an isotonic sodium chloride solution to which 1.5% NaOH was added until the guanosine has been dissolved. The pH of the final solution was 9.
After the inspection the rabbits were given 30 minutes rest.
Arterial blood was removed on six occasions at the times t = 0 min; t = 15 min; t = 30 min; t = 60 min; t = 120 min; t = 240 min.
The glycemia values were determined by the enzymatic method of BOEHRINGER.

Compound | increase in the consumption of oxygen ([1]; acetylcholine 2.7.10^-10 M, alone or with guanosine, rat cerebral cortex sections) [%] | Accumulation of lactic acid ([1]; guanosine 1.66.10^-4 M) [µmol/h/g] | Consumption of glucose ([1]; guanosine 1.66.10^-4 M) [µmol/h/g] | Consumption of oxygen ([1]; guanosine 1.66.10^-4 M) [µmol/h/g] | effect upon the accumulation of lactic acid (in words) ([1]; rat cerebral cortex sections, guanosine 1.66.10^-4 M) | effect upon the consumption of glucose (in words) ([1]; rat cerebral cortex sections, guanosine 1.66.10^-4 M, acetylcholine 2.7.10^-10 M) | effect upon the consumption of oxygen (in words) ([1]; rat cerebral cortex sections, guanosine 1.66.10^-4 M, acetylcholine 2.7.10^-10 M, insulin 66.10^-4 μ/liter) | glycogen of the mouse brain ([2]; guanosine 100 mg/kg intraperitoneal) | glycogen of the mouse brain ([2]; guanosine 200 mg/kg intraperitoneal) | level of cerebral glycogen compared with the controls (in words) [2] | increase in the consumption of glucose ([1]; insulin 66.10^-4 μ/liter, alone or with guanosine, rat cerebral cortex sections) [%] | glycogen of the mouse brain ([2]; insulin 0.5 I.U./20 g mouse subcutaneous) | return of the glycemia to its original level (in words) (glycemia)
CC(=O)OCC[N+](C)(C)C [ACh, acetylcholine, reference compound] | 25 | 98.8 ± 3.7 | 146 ± 13.9 | 134 ± 7.2 |  |  |  |  |  |  |  |  | 
Nc1nc2c(ncn2[C@@H]2O[C@H](CO)[C@@H](O)[C@H]2O)c(=O)[nH]1 [Guanosine, guanosine] |  | 88.2 ± 5.4 | 99.3 ± 9.1 | 93 ± 6 | has no effect | has no effect | has no effect | 151 ± 7 μ g of glucose equivalents per | 159 ± 8 μ g of glucose equivalents per | do not show any significant differences |  |  | 
insulin |  | 84.6 ± 5 | 168 ± 17 | 91.6 ± 5.3 |  |  |  |  |  | very much higher than that of the controls | 50 | 182 ± 10 μ g of glucose equivalents per | quickly returns to its original level
